Measured values taken from patent EP4467141A1, “PYRAZOLO-QUINOLINES AS SELECTIVE INHIBITORS OF GENOTOXIC STRESS-INDUCED IKK/NF- KB PATHWAYS FOR CANCER THERAPY” (Max-Delbrück-Centrum für Molekulare Medizin in der …, priority 2023, dated 2024).

What was measured:
Assay in all cases: Kinase panel study
Assay type in all cases: biochemical
Conditions in all cases: read-out: Percentage of inhibition; for inhibition at 1 µM: 1000nM; for inhibition at 10 µM: 10000nM
CSNK1G1 (CK1 gamma 1) = target: T1, CSNK1G1 (CK1 gamma 1) (Homo sapiens, UniProt Q9HCP0)
T1 construct: purchased Thermo Fisher Scientific
Outline: (§1)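 Inhibition was measured in an outsourced in vitro kinase panel using the ZLyte or Adapta format under the provider's standard procedures. Values are percent inhibition at 10 µM or 1 µM compound, and IC50s were also obtained.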

[1] = target: T2, EGFR (ErbB1) T790M C797S L858R (Homo sapiens, UniProt P00533, C797S/L858R/T790M)
T2 construct: purchased Thermo Fisher Scientific
T2 sequence (P00533 25-1210 T790M/C797S/L858R): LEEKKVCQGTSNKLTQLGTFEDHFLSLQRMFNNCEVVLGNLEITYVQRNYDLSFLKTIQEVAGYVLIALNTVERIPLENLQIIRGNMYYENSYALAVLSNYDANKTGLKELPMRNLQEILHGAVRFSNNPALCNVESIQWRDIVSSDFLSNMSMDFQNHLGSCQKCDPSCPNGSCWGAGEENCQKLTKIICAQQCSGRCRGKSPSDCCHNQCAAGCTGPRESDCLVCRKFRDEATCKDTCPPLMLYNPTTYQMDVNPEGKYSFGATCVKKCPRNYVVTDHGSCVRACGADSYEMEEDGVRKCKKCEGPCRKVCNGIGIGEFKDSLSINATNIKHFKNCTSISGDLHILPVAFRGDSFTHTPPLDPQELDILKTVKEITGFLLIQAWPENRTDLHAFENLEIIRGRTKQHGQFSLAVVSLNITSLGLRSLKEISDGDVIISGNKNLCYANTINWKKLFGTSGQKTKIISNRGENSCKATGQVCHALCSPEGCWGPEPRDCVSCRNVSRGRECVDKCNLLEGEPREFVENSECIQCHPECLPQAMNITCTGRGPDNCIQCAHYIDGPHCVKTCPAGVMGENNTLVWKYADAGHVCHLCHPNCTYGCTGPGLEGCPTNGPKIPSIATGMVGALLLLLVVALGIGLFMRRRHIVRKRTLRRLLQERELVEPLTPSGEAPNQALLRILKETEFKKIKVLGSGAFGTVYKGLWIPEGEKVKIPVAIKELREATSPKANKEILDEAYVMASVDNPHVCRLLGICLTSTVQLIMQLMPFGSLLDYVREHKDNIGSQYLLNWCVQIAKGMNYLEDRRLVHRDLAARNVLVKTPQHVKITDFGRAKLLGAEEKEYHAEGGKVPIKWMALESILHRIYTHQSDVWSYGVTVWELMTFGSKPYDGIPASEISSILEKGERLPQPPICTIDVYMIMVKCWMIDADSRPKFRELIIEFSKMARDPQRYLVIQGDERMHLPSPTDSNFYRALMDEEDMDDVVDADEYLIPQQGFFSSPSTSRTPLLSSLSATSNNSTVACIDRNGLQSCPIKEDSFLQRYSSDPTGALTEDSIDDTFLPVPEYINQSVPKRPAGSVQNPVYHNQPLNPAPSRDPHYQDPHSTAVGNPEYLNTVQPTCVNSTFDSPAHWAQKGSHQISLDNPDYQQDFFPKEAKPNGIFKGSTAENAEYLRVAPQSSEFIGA
Outline: as §1

LRRK2 FL = target: T3, LRRK2 FL (Homo sapiens, UniProt Q5S007)
T3 construct: LRRK2 FL; purchased Thermo Fisher Scientific
T3 sequence (Q5S007 whole entry): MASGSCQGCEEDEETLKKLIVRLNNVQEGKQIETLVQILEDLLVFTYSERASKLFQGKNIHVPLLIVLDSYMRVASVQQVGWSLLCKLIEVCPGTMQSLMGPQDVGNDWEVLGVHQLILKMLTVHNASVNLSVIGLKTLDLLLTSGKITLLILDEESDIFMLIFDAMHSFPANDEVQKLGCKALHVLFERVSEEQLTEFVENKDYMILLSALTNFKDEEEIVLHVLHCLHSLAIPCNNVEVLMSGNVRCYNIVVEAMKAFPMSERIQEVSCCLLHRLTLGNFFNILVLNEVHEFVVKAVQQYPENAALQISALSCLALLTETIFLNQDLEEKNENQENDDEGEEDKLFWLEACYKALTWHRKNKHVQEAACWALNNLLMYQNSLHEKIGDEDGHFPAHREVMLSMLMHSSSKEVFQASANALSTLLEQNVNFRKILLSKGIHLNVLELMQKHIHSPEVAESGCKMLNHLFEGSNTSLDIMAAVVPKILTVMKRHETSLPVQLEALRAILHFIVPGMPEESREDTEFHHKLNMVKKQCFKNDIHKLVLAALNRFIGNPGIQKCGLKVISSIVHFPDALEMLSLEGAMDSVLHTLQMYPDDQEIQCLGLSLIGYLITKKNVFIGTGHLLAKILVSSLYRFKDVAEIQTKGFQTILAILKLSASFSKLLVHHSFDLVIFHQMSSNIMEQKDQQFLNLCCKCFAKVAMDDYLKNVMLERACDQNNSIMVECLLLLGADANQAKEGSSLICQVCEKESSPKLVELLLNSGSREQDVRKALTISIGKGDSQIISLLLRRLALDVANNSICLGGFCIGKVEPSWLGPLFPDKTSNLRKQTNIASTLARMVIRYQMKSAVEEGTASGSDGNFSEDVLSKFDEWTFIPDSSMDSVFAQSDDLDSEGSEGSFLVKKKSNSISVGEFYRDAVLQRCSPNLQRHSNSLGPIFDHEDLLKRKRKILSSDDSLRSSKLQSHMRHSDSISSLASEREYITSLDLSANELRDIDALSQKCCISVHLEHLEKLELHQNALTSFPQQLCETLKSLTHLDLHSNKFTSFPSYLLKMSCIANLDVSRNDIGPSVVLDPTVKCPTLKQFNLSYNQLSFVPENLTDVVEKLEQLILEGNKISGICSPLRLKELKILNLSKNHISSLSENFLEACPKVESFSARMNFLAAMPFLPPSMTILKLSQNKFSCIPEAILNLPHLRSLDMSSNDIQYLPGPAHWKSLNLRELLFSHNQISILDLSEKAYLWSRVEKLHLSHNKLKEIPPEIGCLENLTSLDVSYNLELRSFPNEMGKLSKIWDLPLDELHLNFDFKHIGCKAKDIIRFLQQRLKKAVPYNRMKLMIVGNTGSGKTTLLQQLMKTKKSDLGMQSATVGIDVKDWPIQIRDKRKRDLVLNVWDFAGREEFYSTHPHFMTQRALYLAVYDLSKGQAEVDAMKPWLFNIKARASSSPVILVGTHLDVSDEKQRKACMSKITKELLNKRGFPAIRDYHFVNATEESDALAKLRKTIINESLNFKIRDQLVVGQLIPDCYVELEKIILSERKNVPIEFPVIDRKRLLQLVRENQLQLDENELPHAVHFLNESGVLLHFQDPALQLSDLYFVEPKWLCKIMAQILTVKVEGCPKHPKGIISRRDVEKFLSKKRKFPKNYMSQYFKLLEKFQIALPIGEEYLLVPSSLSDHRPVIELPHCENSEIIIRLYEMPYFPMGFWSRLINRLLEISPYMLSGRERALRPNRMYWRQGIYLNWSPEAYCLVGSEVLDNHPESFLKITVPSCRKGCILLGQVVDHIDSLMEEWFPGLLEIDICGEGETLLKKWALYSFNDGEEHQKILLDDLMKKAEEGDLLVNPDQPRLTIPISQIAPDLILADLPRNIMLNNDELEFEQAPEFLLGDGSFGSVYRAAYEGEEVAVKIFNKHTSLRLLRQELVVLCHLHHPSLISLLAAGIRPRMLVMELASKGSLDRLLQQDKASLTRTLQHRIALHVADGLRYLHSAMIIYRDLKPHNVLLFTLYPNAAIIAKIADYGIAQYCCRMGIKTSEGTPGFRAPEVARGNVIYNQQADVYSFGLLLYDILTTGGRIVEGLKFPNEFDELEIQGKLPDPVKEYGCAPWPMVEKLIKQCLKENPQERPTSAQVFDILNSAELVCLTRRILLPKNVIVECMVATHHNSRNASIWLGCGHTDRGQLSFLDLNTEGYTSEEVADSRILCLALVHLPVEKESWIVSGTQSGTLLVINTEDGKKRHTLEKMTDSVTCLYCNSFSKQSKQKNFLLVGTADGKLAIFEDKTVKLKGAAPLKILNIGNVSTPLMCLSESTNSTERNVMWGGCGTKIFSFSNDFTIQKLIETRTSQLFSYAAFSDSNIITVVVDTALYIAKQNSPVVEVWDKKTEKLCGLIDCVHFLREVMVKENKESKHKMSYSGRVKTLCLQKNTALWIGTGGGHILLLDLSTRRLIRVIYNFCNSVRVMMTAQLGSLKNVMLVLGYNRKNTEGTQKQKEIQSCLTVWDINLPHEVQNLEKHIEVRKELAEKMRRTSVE
Outline: as §1

MARK1 (MARK) = target: T4, MARK1 (MARK) (Homo sapiens, UniProt Q9P0L2)
T4 construct: purchased Thermo Fisher Scientific
Outline: as §1

MET (cMet) Y1235D = target: T5, MET (cMet) Y1235D (Homo sapiens, UniProt P08581, Y1235D)
T5 construct: purchased Thermo Fisher Scientific
Outline: as §1

NEK2 = target: T6, NEK2 (Homo sapiens, UniProt P51955)
T6 construct: purchased Thermo Fisher Scientific
T6 sequence (P51955 1-445): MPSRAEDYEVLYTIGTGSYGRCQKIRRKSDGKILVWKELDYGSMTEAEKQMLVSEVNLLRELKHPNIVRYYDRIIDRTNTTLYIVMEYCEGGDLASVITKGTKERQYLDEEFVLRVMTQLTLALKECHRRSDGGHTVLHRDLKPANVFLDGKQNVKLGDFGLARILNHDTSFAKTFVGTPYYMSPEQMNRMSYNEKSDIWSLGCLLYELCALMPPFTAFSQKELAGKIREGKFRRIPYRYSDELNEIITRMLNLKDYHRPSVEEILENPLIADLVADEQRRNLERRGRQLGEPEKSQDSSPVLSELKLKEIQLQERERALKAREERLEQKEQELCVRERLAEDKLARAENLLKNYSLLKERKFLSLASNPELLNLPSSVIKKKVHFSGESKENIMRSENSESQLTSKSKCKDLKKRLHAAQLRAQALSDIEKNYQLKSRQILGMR
Outline: as §1

NTRK3 (TRKC) = target: T7, NTRK3 (TRKC) (Homo sapiens, UniProt Q16288)
T7 construct: purchased Thermo Fisher Scientific
Outline: as §1

PDGFRA D842V = target: T8, PDGFRA D842V (Homo sapiens, UniProt P16234, D842V)
T8 construct: purchased Thermo Fisher Scientific
T8 sequence (P16234 24-1089 D842V): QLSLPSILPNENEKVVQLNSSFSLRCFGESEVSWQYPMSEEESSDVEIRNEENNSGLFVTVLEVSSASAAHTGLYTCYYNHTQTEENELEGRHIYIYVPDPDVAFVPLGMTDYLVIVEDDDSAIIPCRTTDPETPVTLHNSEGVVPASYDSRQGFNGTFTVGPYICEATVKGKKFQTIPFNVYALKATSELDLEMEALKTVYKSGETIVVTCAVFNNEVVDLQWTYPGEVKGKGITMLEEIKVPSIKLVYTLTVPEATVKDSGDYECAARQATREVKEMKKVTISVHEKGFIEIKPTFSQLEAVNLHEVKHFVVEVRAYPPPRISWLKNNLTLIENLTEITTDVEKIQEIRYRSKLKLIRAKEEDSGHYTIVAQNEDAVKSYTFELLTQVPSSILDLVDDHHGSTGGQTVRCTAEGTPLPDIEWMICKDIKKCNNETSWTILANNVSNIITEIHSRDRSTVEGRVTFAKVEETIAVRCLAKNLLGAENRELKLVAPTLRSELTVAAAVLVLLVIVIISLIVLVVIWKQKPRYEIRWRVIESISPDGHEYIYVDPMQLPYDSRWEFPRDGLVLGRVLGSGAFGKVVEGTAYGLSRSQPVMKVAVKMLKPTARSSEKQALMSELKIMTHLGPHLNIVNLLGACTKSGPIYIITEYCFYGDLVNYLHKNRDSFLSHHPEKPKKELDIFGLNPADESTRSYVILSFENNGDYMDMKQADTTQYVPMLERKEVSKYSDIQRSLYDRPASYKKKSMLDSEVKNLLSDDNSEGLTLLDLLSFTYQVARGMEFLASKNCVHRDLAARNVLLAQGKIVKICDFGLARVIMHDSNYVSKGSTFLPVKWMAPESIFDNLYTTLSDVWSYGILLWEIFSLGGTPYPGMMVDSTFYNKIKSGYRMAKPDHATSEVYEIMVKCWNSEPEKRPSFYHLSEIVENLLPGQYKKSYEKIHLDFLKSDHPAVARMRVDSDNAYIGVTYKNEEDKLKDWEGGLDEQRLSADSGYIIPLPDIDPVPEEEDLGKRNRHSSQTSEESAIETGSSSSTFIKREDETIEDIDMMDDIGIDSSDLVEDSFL
Outline: as §1

PLK2 = target: T9, PLK2 (Homo sapiens, UniProt Q9NYY3)
T9 construct: purchased Thermo Fisher Scientific
Outline: as §1

ROCK1 = target: T10, ROCK1 (Homo sapiens, UniProt Q13464)
T10 construct: purchased Thermo Fisher Scientific
Outline: as §1

RPS6KA1 (RSK1) = target: T11, RPS6KA1 (RSK1) (Homo sapiens, UniProt Q15418)
T11 construct: purchased Thermo Fisher Scientific
Outline: as §1

SBK1 = target: T12, SBK1 (Homo sapiens, UniProt Q52WX2)
T12 construct: purchased Thermo Fisher Scientific
Outline: as §1

SYK = target: T13, SYK (Homo sapiens, UniProt P43405)
T13 construct: purchased Thermo Fisher Scientific
Outline: as §1

TEK (TIE2) Y897S = target: T14, TEK (TIE2) Y897S (Homo sapiens, UniProt Q02763, Y897S)
T14 construct: purchased Thermo Fisher Scientific
Outline: as §1

Structure (SMILES)	inhibition at 1 µM (CSNK1G1 (CK1 gamma 1))	inhibition at 10 µM (CSNK1G1 (CK1 gamma 1))	inhibition at 1 µM [1]	inhibition at 10 µM [1]	inhibition at 1 µM (LRRK2 FL)	inhibition at 10 µM (LRRK2 FL)	inhibition at 1 µM (MARK1 (MARK))	inhibition at 10 µM (MARK1 (MARK))	inhibition at 1 µM (MET (cMet) Y1235D)	inhibition at 10 µM (MET (cMet) Y1235D)	inhibition at 1 µM (NEK2)	inhibition at 10 µM (NEK2)	inhibition at 1 µM (NTRK3 (TRKC))	inhibition at 10 µM (NTRK3 (TRKC))	inhibition at 1 µM (PDGFRA D842V)	inhibition at 10 µM (PDGFRA D842V)	inhibition at 1 µM (PLK2)	inhibition at 10 µM (PLK2)	inhibition at 1 µM (ROCK1)	inhibition at 10 µM (ROCK1)	further results
COc1ccc2c(c1OC)c(=O)n1c3ccc(O)cc3c3ccnc2c31 [MW01, 5-Hydroxy-10,11-dimethoxy-9H-benzo[c]indolo[3,2,1-ij][1,5]naphthyridin-9-one]	5%	12%	2%	12%	85%	90%	4%	6%	-2%	4%	-4%	0%	42%	66%	3%	35%	-1%	-2%	0%	13%	inhibition at 1 µM (RPS6KA1 (RSK1)): 12%; inhibition at 10 µM (RPS6KA1 (RSK1)): 19%; inhibition at 1 µM (SBK1): 3%; inhibition at 10 µM (SBK1): 3%; inhibition at 1 µM (SYK): 16%; inhibition at 10 µM (SYK): 37%; inhibition at 1 µM (TEK (TIE2) Y897S): -14%; inhibition at 10 µM (TEK (TIE2) Y897S): -10%
COc1ccc2cc3c(N)nn(C(=O)c4cccc(N(C)C)c4)c3nc2c1 [MW05, (3-Amino-7-methoxypyrazolo[3,4-b]quinolin-1-yl)-[3-(dimethylamino)phenyl]methanone]	3%	6%	1%	2%	-6%	6%	3%	-5%	1%	-44%	-3%	1%	10%	11%	-4%	-2%	3%	-2%	-4%	-5%	inhibition at 1 µM (RPS6KA1 (RSK1)): 10%; inhibition at 10 µM (RPS6KA1 (RSK1)): 3%; inhibition at 1 µM (SBK1): -7%; inhibition at 10 µM (SBK1): -26%; inhibition at 1 µM (SYK): 5%; inhibition at 10 µM (SYK): 7%; inhibition at 1 µM (TEK (TIE2) Y897S): -18%; inhibition at 10 µM (TEK (TIE2) Y897S): -11%
